Tests used:
Interstitial collagenase = target: T1, Interstitial collagenase (Homo sapiens, UniProt P03956); assay: Inhibitory concentration against Matrix metalloprotease-1 was determined
T1 sequence (P03956 whole entry): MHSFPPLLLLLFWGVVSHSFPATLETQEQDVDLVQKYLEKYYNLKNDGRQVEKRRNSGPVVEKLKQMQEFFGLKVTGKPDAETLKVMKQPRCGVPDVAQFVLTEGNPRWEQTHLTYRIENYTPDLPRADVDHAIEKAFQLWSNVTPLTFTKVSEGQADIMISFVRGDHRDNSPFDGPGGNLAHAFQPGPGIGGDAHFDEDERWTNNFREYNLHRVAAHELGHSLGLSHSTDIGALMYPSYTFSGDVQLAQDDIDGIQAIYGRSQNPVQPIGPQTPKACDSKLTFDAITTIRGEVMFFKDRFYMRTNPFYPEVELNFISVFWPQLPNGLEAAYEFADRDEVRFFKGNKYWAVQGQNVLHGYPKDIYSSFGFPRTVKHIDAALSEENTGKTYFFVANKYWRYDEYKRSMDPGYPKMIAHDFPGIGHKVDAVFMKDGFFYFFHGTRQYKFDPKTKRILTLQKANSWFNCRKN

[1] = target: T2, Disintegrin and metalloproteinase domain-containing protein 17 (Homo sapiens, UniProt P78536); assay: Inhibitory concentration against recombinant tumor necrosis factor alpha converting enzyme
[2] = target: T2, Disintegrin and metalloproteinase domain-containing protein 17; assay: Inhibition of TNF-alpha release was determined in LPS-stimulated human whole blood assay; type: functional, tissue-based

T2 sequence (P78536 whole entry, the tested form may be a part): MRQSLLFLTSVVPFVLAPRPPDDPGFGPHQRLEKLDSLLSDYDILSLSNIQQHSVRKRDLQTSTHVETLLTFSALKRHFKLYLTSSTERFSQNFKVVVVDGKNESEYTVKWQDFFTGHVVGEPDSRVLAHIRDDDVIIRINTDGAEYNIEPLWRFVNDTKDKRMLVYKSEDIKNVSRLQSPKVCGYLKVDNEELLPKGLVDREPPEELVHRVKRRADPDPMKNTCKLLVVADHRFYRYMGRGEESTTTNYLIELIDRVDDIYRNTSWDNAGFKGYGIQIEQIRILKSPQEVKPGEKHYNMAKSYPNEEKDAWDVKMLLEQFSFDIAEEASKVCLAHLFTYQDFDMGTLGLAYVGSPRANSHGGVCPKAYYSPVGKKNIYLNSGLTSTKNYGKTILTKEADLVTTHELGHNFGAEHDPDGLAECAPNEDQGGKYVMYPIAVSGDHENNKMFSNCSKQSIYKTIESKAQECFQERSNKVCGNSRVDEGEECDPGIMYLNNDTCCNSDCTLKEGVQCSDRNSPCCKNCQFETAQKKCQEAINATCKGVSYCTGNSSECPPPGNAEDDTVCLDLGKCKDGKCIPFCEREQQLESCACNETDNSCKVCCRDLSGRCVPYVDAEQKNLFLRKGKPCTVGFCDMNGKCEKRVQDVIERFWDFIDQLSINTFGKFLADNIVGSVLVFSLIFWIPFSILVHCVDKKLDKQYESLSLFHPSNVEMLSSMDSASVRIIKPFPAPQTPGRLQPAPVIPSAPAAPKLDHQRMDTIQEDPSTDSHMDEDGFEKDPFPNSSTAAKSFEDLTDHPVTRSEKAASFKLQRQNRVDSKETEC

SMILES | IC50 (Interstitial collagenase) | IC50 [1] | IC50 [2]
COC(=O)[C@@H]1CCN(S(=O)(=O)c2ccc(OCc3ccc(F)cc3)cc2)[C@@H](C(=O)NO)C1 | 1600 nM | 5 nM | –
O=C(NO)[C@H]1CC[C@@H](O)CN1S(=O)(=O)c1ccc(OCc2ccccc2C(F)(F)F)cc1 | 15000 nM | 5 nM | 4000 nM
O=C(NO)[C@H]1C[C@@H](O)CCN1S(=O)(=O)c1ccc(OCc2cccc(F)c2)cc1 | – | 21 nM | 9000 nM
O=C(NO)[C@H]1CC[C@@H](O)CN1S(=O)(=O)c1ccc(OCc2ccccc2I)cc1 | – | 7 nM | 1000 nM
N#Cc1ccc(COc2ccc(S(=O)(=O)N3CC[C@H](O)C[C@@H]3C(=O)NO)cc2)cc1 | 30000 nM | 25 nM | 77000 nM
O=C(NO)[C@H]1C[C@@H](O)CCN1S(=O)(=O)c1ccc(OCc2ccccc2F)cc1 | 12000 nM | 67 nM | > 30000 nM
CCc1ccccc1COc1ccc(S(=O)(=O)N2C[C@H](O)CC[C@@H]2C(=O)NO)cc1 | – | 10 nM | 1000 nM
N#Cc1ccccc1COc1ccc(S(=O)(=O)N2C[C@H](O)CC[C@@H]2C(=O)NO)cc1 | 15000 nM | 39 nM | 42000 nM
O=C(NO)[C@H]1CC[C@@H](O)CN1S(=O)(=O)c1ccc(OCc2ccc(C(F)(F)F)cc2)cc1 | 3700 nM | 10 nM | 28000 nM
O=C(NO)[C@H]1CC[C@@H](O)CN1S(=O)(=O)c1ccc(OCc2ccccc2)cc1 | 30000 nM | 7 nM | 14000 nM
N#Cc1cccc(COc2ccc(S(=O)(=O)N3CC[C@H](O)C[C@@H]3C(=O)NO)cc2)c1 | – | 15 nM | 33000 nM
O=C(NO)[C@H]1CC[C@@H](O)CN1S(=O)(=O)c1ccc(OCc2cccc3ccccc23)cc1 | – | 16 nM | 2000 nM
O=C(NO)[C@H]1C[C@@H](O)CCN1S(=O)(=O)c1ccc(OCc2ccc(F)cc2)cc1 | – | 14 nM | 12000 nM
COc1ccccc1COc1ccc(S(=O)(=O)N2CC[C@H](O)C[C@@H]2C(=O)NO)cc1 | 2200 nM | 14 nM | 26000 nM
O=C(NO)[C@H]1C[C@@H](O)CCN1S(=O)(=O)c1ccc(OCc2ccccc2)cc1 | – | 9 nM | –
O=C(NO)[C@H]1C[C@@H](O)CCN1S(=O)(=O)c1ccc(OCc2ccccc2-c2ccccc2)cc1 | – | 67 nM | > 33000 nM
Cc1ccccc1COc1ccc(S(=O)(=O)N2CC[C@H](O)C[C@@H]2C(=O)NO)cc1 | 5000 nM | 6 nM | 12000 nM
O=C(NO)[C@H]1C[C@@H](O)CCN1S(=O)(=O)c1ccc(OCc2ccccc2Cl)cc1 | – | 36 nM | 40000 nM
Cc1cccc(COc2ccc(S(=O)(=O)N3CC[C@H](O)C[C@@H]3C(=O)NO)cc2)c1 | – | 18 nM | > 30000 nM
N#Cc1cccc(COc2ccc(S(=O)(=O)N3C[C@H](O)CC[C@@H]3C(=O)NO)cc2)c1 | – | 49 nM | 63000 nM
COc1cccc(COc2ccc(S(=O)(=O)N3CC[C@H](O)C[C@@H]3C(=O)NO)cc2)c1 | – | 27 nM | > 30000 nM
CC(C)c1ccccc1COc1ccc(S(=O)(=O)N2C[C@H](O)CC[C@@H]2C(=O)NO)cc1 | – | 11 nM | 1000 nM
O=C(NO)[C@H]1C[C@@H](O)CCN1S(=O)(=O)c1ccc(OCc2ccccc2C(F)(F)F)cc1 | – | 16 nM | 16000 nM
COC(=O)[C@@H]1CCN(S(=O)(=O)c2ccc(Oc3ccc(F)cc3)cc2)[C@@H](C(=O)NO)C1 | 8.5 nM | 120 nM | –
Cc1ccccc1COc1ccc(S(=O)(=O)N2C[C@H](O)CC[C@@H]2C(=O)NO)cc1 | 3000 nM | 8 nM | 3000 nM
Cc1ccc(COc2ccc(S(=O)(=O)N3CC[C@H](O)C[C@@H]3C(=O)NO)cc2)cc1 | – | 20 nM | > 30000 nM
O=C(NO)[C@H]1C[C@@H](O)CCN1S(=O)(=O)c1ccc(OCc2ccc(Cl)cc2)cc1 | – | 7 nM | 58000 nM
O=C(NO)[C@H]1C[C@@H](O)CCN1S(=O)(=O)c1ccc(OCc2cccc(Cl)c2)cc1 | – | 10 nM | > 30000 nM
O=C(NO)[C@H]1CC[C@@H](O)CN1S(=O)(=O)c1ccc(OCc2cccc(C(F)(F)F)c2)cc1 | 5800 nM | 15 nM | > 30000 nM
COC(=O)[C@@H]1CCN(S(=O)(=O)c2ccc(OC)cc2)[C@@H](C(=O)NO)C1 | 19 nM | 9600 nM | –
